Data: US20260007684A1, “AMIDE DERIVATIVES FOR INHIBITING NLRP3 AND USES THEREOF” (Ventus Therapeutics U.S., Inc., priority 2023, published 2026)
Like-named read-outs stand apart in the source and are kept apart here.

How the values were obtained:
mouse NLRP3 = mouse NLRP3 (Mus musculus (Mouse), UniProt Q8R4B8); assay: Mouse Whole Blood (mWB) NLRP3 Assay (LPS/ATP, IL-1b); assay type: cell-based
Protocol: Reagents: The following reagents were used: blood collection tubes (Heparin); U-bottom 96-well tissue culture (Falcon 353077); HBSS for LPS, ATP and compound dilutions (Gibco 24020-117); and LPS, E. coli serotype 026:B6 (Sigma L-2654).
Mouse IL-1b MSD assay: Blood was drawn from female CD1 mice (9 to 10 weeks) by cardiac puncture. Blood was plated (135 μL) per well in 96-well U-bottom plates. 7.5 μL of 20×LPS (20 μg/mL, final concentration of 1 μg/mL) was added and mixed by gentle pipetting, and the mixture was incubated in a TC incubator for five hours. 7.5 μL of 20× compound or vehicle per well was added and mixed by gentle pipetting. Compounds were diluted 1/50 in HBSS to prepare a 20× dilution curve in […].
The mixture was incubated for 30 minutes in a TC incubator with shaking (450 rpm). 5 μl of 31×ATP (155 mM, final concentration of 5 mM) was added and mixed by gentle pipetting. The mixture was incubated in a TC incubator for 30 minutes with shaking (450 rpm). The plate was centrifuged for 10 minutes at 800×g and −70 μL of plasma was removed. Plasma was frozen if required. Mouse IL-1b was analyzed with IL-1b MSD assay (K152TUK).
Compounds were added 30 minutes before priming the cells with LPS when TNFα was required to be quantified in the cytokine panel to confirm selectivity.

human NLRP3 [1] = molecular target: T1, human NLRP3 (Homo sapiens (Human), UniProt Q96P20); assay: Human PBMC NLRP3 Assay (LPS priming, ATP stimulation, cytokine measurement); assay type: cell-based
human NLRP3 [2] = molecular target: T1, human NLRP3; assay: Human Whole Blood (hWB) NLRP3 Assay (LPS/ATP, IL-1β); assay type: cell-based
human NLRP3 [3] = molecular target: T1, human NLRP3; assay: Scintillation Proximity (SPA) NLRP3 Assay: displacement of 3H-MCC950; assay type: binding; settings: for IC50: read-out: SPA IC50
[4] = mouse whole blood, LPS/ATP, IL-1b
[5] = human PBMC, LPS priming, ATP stimulation, read-out: PBMC IC50
[6] = human whole blood, LPS/ATP, IL-1β, read-out: hWB IC50
[7] = PBMC IC50, human PBMC, LPS priming, ATP stimulation
[8] = hWB IC50, human whole blood, LPS/ATP, IL-1β

Sequence of mouse NLRP3 (Q8R4B8 whole entry): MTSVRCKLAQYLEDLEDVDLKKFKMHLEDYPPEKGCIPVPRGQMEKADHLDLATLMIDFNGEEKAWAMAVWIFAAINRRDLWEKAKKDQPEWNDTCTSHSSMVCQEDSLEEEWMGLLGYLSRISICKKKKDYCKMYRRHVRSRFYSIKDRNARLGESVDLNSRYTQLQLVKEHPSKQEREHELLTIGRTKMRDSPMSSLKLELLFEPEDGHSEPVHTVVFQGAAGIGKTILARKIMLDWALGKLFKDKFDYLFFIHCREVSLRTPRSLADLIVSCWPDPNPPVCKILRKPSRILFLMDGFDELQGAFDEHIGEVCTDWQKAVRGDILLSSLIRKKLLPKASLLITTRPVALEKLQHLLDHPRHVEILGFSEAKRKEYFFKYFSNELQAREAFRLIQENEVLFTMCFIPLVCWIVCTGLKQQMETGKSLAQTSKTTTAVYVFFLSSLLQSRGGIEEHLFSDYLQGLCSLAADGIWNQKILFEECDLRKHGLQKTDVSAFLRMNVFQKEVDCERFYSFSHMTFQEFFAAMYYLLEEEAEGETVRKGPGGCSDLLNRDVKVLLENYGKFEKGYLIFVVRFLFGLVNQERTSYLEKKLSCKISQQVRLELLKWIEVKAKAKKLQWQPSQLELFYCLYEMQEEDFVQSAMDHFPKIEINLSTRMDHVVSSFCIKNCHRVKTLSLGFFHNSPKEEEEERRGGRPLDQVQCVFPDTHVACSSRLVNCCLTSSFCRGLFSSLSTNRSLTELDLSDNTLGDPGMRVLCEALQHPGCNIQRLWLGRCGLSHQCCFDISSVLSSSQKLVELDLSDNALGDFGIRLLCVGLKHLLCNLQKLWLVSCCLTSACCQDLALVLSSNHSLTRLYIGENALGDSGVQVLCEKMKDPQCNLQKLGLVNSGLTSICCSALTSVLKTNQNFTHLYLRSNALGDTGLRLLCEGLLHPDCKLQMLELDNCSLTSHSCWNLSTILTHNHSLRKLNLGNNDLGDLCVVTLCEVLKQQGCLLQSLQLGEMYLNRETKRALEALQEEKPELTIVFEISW
T1 sequence (Q96P20 whole entry): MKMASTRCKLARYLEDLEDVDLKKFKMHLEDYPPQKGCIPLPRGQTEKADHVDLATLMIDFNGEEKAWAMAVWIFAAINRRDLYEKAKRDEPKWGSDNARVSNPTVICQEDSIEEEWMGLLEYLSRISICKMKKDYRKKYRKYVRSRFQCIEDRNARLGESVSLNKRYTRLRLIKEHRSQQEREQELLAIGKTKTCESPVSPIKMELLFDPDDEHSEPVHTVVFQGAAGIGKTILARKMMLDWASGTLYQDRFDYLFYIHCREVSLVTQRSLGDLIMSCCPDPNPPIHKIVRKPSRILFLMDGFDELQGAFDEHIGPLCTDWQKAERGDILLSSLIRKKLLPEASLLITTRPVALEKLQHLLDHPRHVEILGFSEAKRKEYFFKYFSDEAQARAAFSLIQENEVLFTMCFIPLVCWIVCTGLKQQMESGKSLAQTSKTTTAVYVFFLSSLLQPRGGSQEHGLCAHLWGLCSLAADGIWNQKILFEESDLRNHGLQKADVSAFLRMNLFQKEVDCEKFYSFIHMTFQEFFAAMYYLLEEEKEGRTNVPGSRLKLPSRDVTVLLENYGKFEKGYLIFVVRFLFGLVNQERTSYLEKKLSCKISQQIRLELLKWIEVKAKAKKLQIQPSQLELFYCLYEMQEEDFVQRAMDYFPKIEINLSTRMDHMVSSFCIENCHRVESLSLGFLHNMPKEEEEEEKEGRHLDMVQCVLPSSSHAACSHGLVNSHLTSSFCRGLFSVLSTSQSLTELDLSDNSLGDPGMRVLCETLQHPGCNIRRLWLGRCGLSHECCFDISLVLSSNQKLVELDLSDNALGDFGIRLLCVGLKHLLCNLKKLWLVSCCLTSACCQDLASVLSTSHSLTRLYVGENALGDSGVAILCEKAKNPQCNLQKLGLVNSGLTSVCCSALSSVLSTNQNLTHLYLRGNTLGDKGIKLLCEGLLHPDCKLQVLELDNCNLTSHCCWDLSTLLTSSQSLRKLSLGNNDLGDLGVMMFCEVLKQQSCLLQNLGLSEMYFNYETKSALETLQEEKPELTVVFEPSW

IC50 (mouse NLRP3) | IC50 (mouse NLRP3; [4]) | IC50 (human NLRP3 [1]; [5]) | IC50 (human NLRP3 [1]; read-out: PBMC IC50) | IC50 (human NLRP3 [2]; [6]) | IC50 (human NLRP3 [2]; read-out: hWB IC50) | IC50 (human NLRP3 [3]; displacement of 3H-MCC950) | IC50 (human NLRP3 [3]) | fold increase in potency as measured by mWB IC50 (mouse NLRP3; relative to Compound 46A) | fold increase in potency as measured by PBMC IC50 (human NLRP3 [1]; relative to Compound 46A) | fold increase in potency as measured by hWB IC50 (human NLRP3 [2]; relative to Compound 46A) | fold increase in binding activity (SPA IC50) (human NLRP3 [3]; relative to Compound 46A) | fold increase in potency as measured by PBMC IC50 (human NLRP3 [1]; relative to Compound 10A) | fold increase in potency as measured by hWB IC50 (human NLRP3 [2]; relative to Compound 10A) | fold increase in binding activity (SPA IC50) (human NLRP3 [3]; relative to Compound 10A) | SMILES | IC50 (human NLRP3 [1]; [7]) | IC50 (human NLRP3 [2]; [8])
82 nM | < 1000 nM | < 10 nM | 4.3 nM | < 1000 nM | 61 nM | < 1000 nM | 41 nM | – | – | – | – | – | – | – | C[C@H]1C[C@@H](NC(=O)C2(c3ccc(C(F)(F)F)cc3O)CC2)CN(c2nnn[nH]2)C1 [Compound 16A, 1-(2-hydroxy-4-(trifluoromethyl)phenyl)-N-((3R,5S)-5-methyl-1-(1H-tetrazol-5-yl)piperidin-3-yl)cyclopropane-1-carboxamide] | – | –
35 nM | < 1000 nM | < 10 nM | 6.7 nM | < 1000 nM | 220 nM | < 1000 nM | 48 nM | 4.9 fold | 15 fold | > 11 fold | 18 fold | – | – | – | C[C@H]1C[C@@H](NC(=O)C2(c3ccc(Cl)cc3O)CC2)CN(c2nnn[nH]2)C1 [Compound 47A, 1-(4-chloro-2-hydroxyphenyl)-N-((3R,5S)-5-methyl-1-(1H-tetrazol-5-yl)piperidin-3-yl)cyclopropane-1-carboxamide] | – | –
– | < 1000 nM | < 10 nM | – | < 1000 nM | – | < 1000 nM | – | – | – | – | – | – | – | – | C[C@@H]1CCN(c2nnn[nH]2)C[C@H](NC(=O)C2(c3ccc(Cl)cc3)CC2)C1 (single isomer, unassigned) [12A*, 1-(4-chlorophenyl)-N-(5-methyl-1-(1H-tetrazol-5-yl)azepan-3-yl)cyclopropane-1-carboxamide] | – | –
– | 2000 to 3000 nM | 100 to 500 nM | – | 2000 to 3000 nM | – | 1000 to 10000 nM | – | – | – | – | – | – | – | – | C[C@H]1CCN(c2nnn[nH]2)C[C@@H]1NC(=O)C1(c2ccc(Cl)cc2)CC1 [Compound 49C, 1-(4-chlorophenyl)-N-[(3R,4S)-4-methyl-1-(1H-tetrazol-5-yl)-3-piperidyl]cyclopropanecarboxamide] | – | –
1800 nM | 1000 to 2000 nM | 10 to 100 nM | 44 nM | < 1000 nM | 720 nM | 1000 to 10000 nM | 2200 nM | – | – | – | – | 48 fold | > 10 fold | > 4 fold | O=C(N[C@@H]1CCCCN(c2nnn[nH]2)C1)C1(c2ccc(Cl)cc2)CC1 [Compound 51A, 1-(4-chlorophenyl)-N-[(3R)-1-(1H-tetrazol-5-yl)azepan-3-yl]cyclopropanecarboxamide] | – | –

SMILES | IC50 (mouse NLRP3) | IC50 (mouse NLRP3; [4]) | IC50 (human NLRP3 [1]; [5]) | IC50 (human NLRP3 [1]; read-out: PBMC IC50) | IC50 (human NLRP3 [2]; [6]) | IC50 (human NLRP3 [2]; read-out: hWB IC50) | IC50 (human NLRP3 [3]; displacement of 3H-MCC950) | IC50 (human NLRP3 [3]) | fold increase in potency as measured by mWB IC50 (mouse NLRP3; relative to Compound 46A) | fold increase in potency as measured by PBMC IC50 (human NLRP3 [1]; relative to Compound 46A) | fold increase in potency as measured by hWB IC50 (human NLRP3 [2]; relative to Compound 46A) | fold increase in binding activity (SPA IC50) (human NLRP3 [3]; relative to Compound 46A) | fold increase in potency as measured by PBMC IC50 (human NLRP3 [1]; relative to Compound 10A) | fold increase in potency as measured by hWB IC50 (human NLRP3 [2]; relative to Compound 10A) | fold increase in binding activity (SPA IC50) (human NLRP3 [3]; relative to Compound 10A) | IC50 (human NLRP3 [1]; [7]) | IC50 (human NLRP3 [2]; [8])
C[C@@H]1C[C@@H](NC(=O)C2(c3ccc(OC(F)F)cc3)CC2)[C@H]2CC[C@@H]1N2c1nnn[nH]1 (single isomer, unassigned) [35A*] | – | < 1000 nM | – | – | – | – | < 1000 nM | – | – | – | – | – | – | – | – | < 10 nM | < 1000 nM
C[C@@H]1C[C@@H](NC(=O)C2(c3ccc(C(F)(F)F)cc3)CC2)[C@H]2CC[C@@H]1N2c1nnn[nH]1 [79A*, N-((1R,2R,4R,5S)-4-methyl-8-(1H-tetrazol-5-yl)-8-azabicyclo[3.2.1]octan-2-yl)-1-(4-(trifluoromethyl)phenyl)cyclopropane-1-carboxamide] | – | < 1000 nM | – | – | – | – | < 1000 nM | – | – | – | – | – | – | – | – | < 10 nM | < 1000 nM
O=C(N[C@@H]1CC[C@H]2CC[C@@H]1N2c1nnn[nH]1)C1(c2ccc(C(F)(F)F)cc2O)CC1 (single isomer, unassigned) [34C*] | – | < 1000 nM | – | – | – | – | < 1000 nM | – | – | – | – | – | – | – | – | 10 to 100 nM | < 1000 nM
